The values below come from patent US20260176270A1 (Exelixis, Inc., priority 2022, published 2026).

Read-outs that look alike come from different tables or passages of the source. Bounds are passed on as bounds.

In one assay the target is T1, PKMYT1 (Homo sapiens, UniProt Q99640).
T1 construct: PKMYT1 (93 kD, full length, N-terminal GST tag from Signal Chem); GST (N); purchased Signal Chem
T1 sequence (Q99640 1-499): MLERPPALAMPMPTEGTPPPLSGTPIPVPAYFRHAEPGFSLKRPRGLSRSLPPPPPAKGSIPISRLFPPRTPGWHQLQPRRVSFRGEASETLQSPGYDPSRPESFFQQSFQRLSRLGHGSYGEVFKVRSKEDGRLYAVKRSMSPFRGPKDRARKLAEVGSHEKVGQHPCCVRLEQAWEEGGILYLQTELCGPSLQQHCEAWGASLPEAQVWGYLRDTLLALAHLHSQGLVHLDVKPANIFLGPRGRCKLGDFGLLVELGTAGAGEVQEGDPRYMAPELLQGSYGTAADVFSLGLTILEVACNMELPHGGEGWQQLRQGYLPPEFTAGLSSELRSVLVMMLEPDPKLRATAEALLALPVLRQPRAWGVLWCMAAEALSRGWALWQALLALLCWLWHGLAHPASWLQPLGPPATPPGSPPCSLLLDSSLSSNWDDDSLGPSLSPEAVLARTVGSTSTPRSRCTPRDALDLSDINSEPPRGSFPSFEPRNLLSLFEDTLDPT
As to the kind of experiment: ADP-Glo PKMYT1 ATP-depletion assay. The settings on record: 50 nM PKMYT1, 13.3 nM CDK1, read-out: Biochemical IC50. The procedure: (§1) Biochemical IC50 values were determined via ADP-Glo™ assay. Cellular IC50 values were determined via AlphaLISA assay.
ADP-Glo™ PKMYT1 ATP-depletion assay. The activity of PKMYT1 is measured using a luciferase-luciferin based ATP detection reaction to quantify ATP depletion resulting from kinase-catalyzed phosphoryl transfer to CDK1 or autophosphorylation of PKMYT1. The ADP generated as a byproduct of the reaction is converted to ATP and used to drive a luciferase reaction. Test compounds were dissolved in DMSO and dispensed into Corning 3824 384-well plates prior to the experiment such that the final DMSO concentration was <1%. To the compounds was added 3 μL of PKMYT1 (93 kD, full length, N-terminal GST tag from Signal Chem). The reaction was started by the addition of 2 μL of CDK1 (58 kDa, full length, N-terminal GST tag from Signal Chem) and ATP in assay buffer (50 mM Hepes, 40 mM NaCl, 10 mM MgCl2, 1 mM DTT, 0.1 mg/mL BSA, 2.5 mM MnCl2). Final assay concentrations were 50 nM PKMYT1, 13.3 nM CDK1, and 88 µM ATP. Plates were centrifuged for 1 minute at 1000 RPM and incubated at RT for 120 minutes. After the incubation period, ADP-Glo™ reagent was added and the plates were incubated for another 40 minutes before finally adding the kinase detection reagent. 30 minutes after the addition, plates were placed on a PHERAstar® plate reader and read using the Luminescence Protocol, integration time at 0.5 seconds.

Assay [1] concerns phosphorylation of CDK1 at Thr14 in HCC1806 cells. As to the kind of experiment: Cell lysate AlphaLISA assay measuring inhibition of phosphorylation of CDK1 Thr14. Type of assay: cell-based. The settings on record: read-out: Cellular IC50. The method, then: as §1
Cell lysate AlphaLISA® assay measuring inhibition of phosphorylation of CDK1 Thr14. Inhibition of phosphorylation of CDK1 at Thr14 was determined using AlphaLISA® SureFire® Ultra™ Kit from Perkin Elmer (ALSU-PCDK1-A10K). HCC1806 cells were seeded at 2K cells per well (50 μl/well) in 384-well plates (Corning 3570) and stored overnight at 37° C. and 5% CO2. The following day, the compounds dissolved in DMSO were introduced to the cells and incubated for 4 hours at 37° C. and 5% CO2. The cells were then washed with PBS using Blue®Washer and 10 μl of lysis buffer containing protease inhibitor was added. The plate was placed on an orbital shaker (at 4° C.) for 30 minutes and stored overnight at −80° C. for complete lysing. The next day, the plates were thawed at room temperature for at least 30 min. Reagents were prepared in a dimmed light setting (<100 lumens). The assay was run by first adding 5 μl of the acceptor mix (reaction buffer 1: reaction buffer 2: activation buffer: acceptor beads 47:47:4:2), covering the plate with foil, shaking for 2 minutes and incubating at RT for 60 minutes. The donor mix (dilution buffer: donor beads 47:3) was then added at 5 μl per well, placed on the shaker for 2 minutes and incubated at RT for 60 minutes before reading the plates on a PHERAstar® plate reader. The results were normalized to DMSO (0% Inhibition) and 3 μM of reference compound.

As for `Cc1c(O)cccc1-c1c(N)c(C(N)=O)nc2c(=O)[nH]cnc12` [Compound 282], the half-maximal inhibitory concentration (IC50) is 50 to 500 nM at PKMYT1 and ≥ 5000 nM in assay [1] (Homo sapiens, HCC1806, 4 h).
Taken in the same sequence, the figures for `Cc1c(-c2c(N)c(C(N)=O)cc3nccnc23)ccc2[nH]cnc12` [Compound 252] were ≥ 5000 nM and ≥ 5000 nM.
`NC(=O)c1nc2c(c(-c3cc(O)cnc3F)c1N)NCCC2` (atropisomer, axis not shown) [Compound 294]: the IC50 at PKMYT1 is 1000 to 5000 nM; in assay [1] (Homo sapiens, HCC1806, 4 h), ≥ 5000 nM.
Consider `Cc1c(O)cc(Cl)cc1-c1c(N)c(C(N)=O)nc2cccnc12` (atropisomer, axis not shown) [Compound 290], for which the IC50 (on PKMYT1; in assay [1] (4 hours)) was 50 to 500 nM in each case.
As for `Cc1cncc(C2=c3ncccc3=NC(C(N)=O)C2N)c1C` (stereo not shown) [Compound 211], the IC50 on PKMYT1 was 500 to 1000 nM; in assay [1] (Homo sapiens, HCC1806, 4 h) it was 1000 to 5000 nM.
Taken in the same sequence, the figures for `Cc1ccc(C#N)cc1-c1c(N)c(C(N)=O)nc2cccnc12` [Compound 254] were ≥ 5000 nM and ≥ 5000 nM.
Regarding `Cc1c(O)cccc1-c1c(N)c(C(N)=O)cc2cc(Cl)cnc12` (atropisomer, axis not shown) [Compound 179], the values for the IC50 (at PKMYT1; in assay [1] (4 hours)) were < 50 nM and 50 to 500 nM, respectively.
Turning to `Cc1c(F)cncc1-c1c(N)c(C(N)=O)nc2cccnc12` [Compound 208], the IC50 fell in the range of 50 to 500 nM at PKMYT1 and 500 to 1000 nM in assay [1] (Homo sapiens, HCC1806, 4 h).
With `Cc1ccc(O)c(C)c1-c1c(N)c(C(N)=O)nc2c(C)cccc12` (single isomer, unassigned) [Compound 33], the IC50 at PKMYT1 is 1000 to 5000 nM; in assay [1] (4 hours), ≥ 5000 nM.
With `Cc1ccc(O)c(C)c1-c1c(N)c(C(N)=O)nc2ccc(Cl)cc12` [Compound 36, 3-Amino-6-chloro-4-(3-hydroxy-2,6-dimethyl-phenyl) quinoline-2-carboxamide], the IC50 on PKMYT1 fell in the range of 50 to 500 nM; in assay [1] (Homo sapiens, HCC1806, 4 h), 1000 to 5000 nM.
As for `Cc1nc2cc(C(N)=O)c(N)c(-c3cccc(O)c3C)c2nc1C` (single isomer, unassigned) [Compound 93, (M)-7-Amino-8-(3-hydroxy-2-methylphenyl)-2,3-dimethylquinoxaline-6-carboxamide], the IC50 (on PKMYT1; in assay [1] (4 hours)) was ≥ 5000 nM each time.
Turning to `Cc1c(-c2c3c(cc4nccnc24)C(=O)NC(C)(C)N3)ccc(F)c1O` (atropisomer, axis not shown) [Compound 313], the IC50 (at PKMYT1; in assay [1] (4 hours)) was ≥ 5000 nM each time.
On to `NC(=O)c1cc2nccnc2c(-c2ccc(F)c(O)c2)c1N` [Compound 200], for which the IC50 on PKMYT1 is 50 to 500 nM; in assay [1] (Homo sapiens, HCC1806, 4 h), ≥ 5000 nM.
For `Cc1ccc2[nH]ncc2c1-c1c(N)c(C(N)=O)cc2nccnc12` (single isomer, unassigned) [Compound 78, (P)-7-Amino-8-(5-methyl-1H-indazol-4-yl)quinoxaline-6-carboxamide], the values for the IC50 (on PKMYT1; in assay [1] (4 hours)) were 50 to 500 nM and 1000 to 5000 nM, respectively.
Turning to `NC(=O)c1nc2cccnc2c(-c2cnn3c2CCCC3)c1N` [Compound 322], the IC50 is 1000 to 5000 nM on PKMYT1 and ≥ 5000 nM in assay [1] (Homo sapiens, HCC1806, 4 h).
As to `NC(=O)c1cc2nccnc2c(-c2cc(O)ccc2Cl)c1N` [Compound 121, 7-Amino-8-(2-chloro-5-hydroxyphenyl)quinoxaline-6-carboxamide], the IC50 is 50 to 500 nM on PKMYT1 and 1000 to 5000 nM in assay [1] (Homo sapiens, HCC1806, 4 h).
Turning to `Cc1c(O)cccc1-c1c(N)c(C(N)=O)nc2cc(C(F)(F)F)cnc12` (atropisomer, axis not shown) [Compound 167], the IC50 on PKMYT1 is 1000 to 5000 nM; in assay [1] (4 hours), ≥ 5000 nM.
For `Cc1c(Cl)cncc1C1=c2ncccc2=NC(C(N)=O)C1N` (stereo not shown) [Compound 240] the same measures were < 50 nM and 50 to 500 nM.
Take `CC1=C(c2c(N)c(C(N)=O)nc3cccnc23)CCC[C@@H]1O` [Compound 310]: the IC50 at PKMYT1 was ≥ 5000 nM; in assay [1] (Homo sapiens, HCC1806, 4 h), ≥ 5000 nM.
With `NC(=O)c1cc2nccnc2c(-c2cccc(O)c2C(F)(F)F)c1N` [Compound 199], the IC50 on PKMYT1 fell in the range of 50 to 500 nM; in assay [1] (Homo sapiens, HCC1806, 4 h), 1000 to 5000 nM.
For the molecule `Cc1c(O)cccc1-c1c(N)c(C(N)=O)cc2ncccc12` (atropisomer, axis not shown; (M)) [Compound 68, (M)-6-Amino-5-(3-hydroxy-2-methylphenyl)quinoline-7-carboxamide], the IC50 lay in the range of 50 to 500 nM on PKMYT1 and 500 to 1000 nM in assay [1] (4 hours).
In the case of `COc1ccnc2c(-c3cccc(O)c3C)c(N)c(C(N)=O)cc12` (atropisomer, axis not shown) [Compound 325], the IC50 (on PKMYT1; in assay [1] (4 hours)) was 1000 to 5000 nM in each case.
On to `Cc1ccc(O)c(C)c1-c1c(N)c(C#N)cc2nccnc12` (atropisomer, axis not shown) [Compound 302], for which the IC50 is 1000 to 5000 nM on PKMYT1 and ≥ 5000 nM in assay [1] (4 hours).
For `Cc1nc2cc(C(N)=O)c(N)c(-c3cccc(O)c3C)c2nc1C` (single isomer, unassigned) [Compound 92, (P)-7-Amino-8-(3-hydroxy-2-methylphenyl)-2,3-dimethylquinoxaline-6-carboxamide] the same measures were < 50 nM and 50 to 500 nM.
Taken in the same sequence, the figures for `Cc1ccc(O)c(C)c1-c1c(N)c(C(N)=O)nc2ccccc12` (atropisomer, axis not shown; (M)) [Compound 44, (M)-3-Amino-4-(3-hydroxy-2,6-dimethylphenyl)quinoline-2-carboxamide] were 50 to 500 nM and 1000 to 5000 nM.
In the case of `Cc1cc2nc(N)sc2cc1-c1c(N)c(C(N)=O)cc2nccnc12` [Compound 311], the IC50 at PKMYT1 was 1000 to 5000 nM; in assay [1] (Homo sapiens, HCC1806, 4 h), ≥ 5000 nM.
Turning to `Cc1ccc(O)c(C)c1-c1c(N)c(C(N)=O)cc2nc(C)c(C)nc12` (atropisomer, axis not shown) [Compound 141], at PKMYT1, the IC50 was < 50 nM.
Regarding `NC(=O)c1cc2nccnc2c(-c2cc(O)ccc2Cl)c1N` (atropisomer, axis not shown) [Compound 151], the IC50 on PKMYT1 was in the range of 50 to 500 nM.
Regarding `NC(=O)c1cc2nccnc2c(-c2cc(O)ccc2Cl)c1N` (atropisomer, axis not shown) [Compound 152], the IC50 at PKMYT1 is ≥ 5000 nM.
As for `Cc1ccc(O)c(C)c1-c1cc(C(N)=O)cc2nccnc12` (atropisomer, axis not shown) [Compound 165], the IC50 at PKMYT1 is ≥ 5000 nM.
On the same count and under the same terms, to `Cc1c(O)cccc1-c1c(N)c(C(N)=O)nc2nccnc12` (atropisomer, axis not shown) [Compound 195] belongs 500 to 1000 nM; to `Cc1ccc(O)c(C)c1-c1c(N)c(C(N)=O)cc2nc(C)c(C)nc12` (atropisomer, axis not shown) [Compound 140], ≥ 5000 nM.
The same measure, in the same setting: to `Cc1c(O)cccc1-c1c(N)c(C(N)=O)nc2nccnc12` (atropisomer, axis not shown) [Compound 194] belongs < 50 nM.
On to `Cc1ccc2nc(C(N)=O)c(N)c(-c3cccc(O)c3C)c2c1` (atropisomer, axis not shown) [Compound 150], for which the IC50 at PKMYT1 is ≥ 5000 nM.
The same measure, in the same setting: in the case of `Cc1ccc2nc(C(N)=O)c(N)c(-c3cccc(O)c3C)c2c1` (atropisomer, axis not shown) [Compound 149] it was 50 to 500 nM.
